Eight compounds from patent publication US4942234A, “Isothiazolone 1,1-dioxide derivatives with psychotropic activity” (American Home Products Corporation, priority 1989, dated 1990) can be followed below.

Assay [1] has as its system conditioned avoidance response. As to the kind of experiment: conditioned avoidance (shelf-jump response) test. Type of assay: in vivo, male CD rats. The conditions noted are these: rats; for Active at: i.p. Here is the method:
A test designed to determine the potential antipsychotic activity of the compounds of the invention is the conditioned avoidance (shelf-jump response) test.
This test is carried out as follows:
Male CD rats (Charles River) maintained at approximately 400-450 gm body weight are used. […] A moveable wall, controlled by a motor, determines whether the rat has access to the shelf at any time during the experiment. The experimental chamber also contains a house light and sonalert. A steel grid floor in the main chamber is wired for presentation of electric shock. Each trial consists of a fifteen-second warning tone (conditioned stimulus), continuing for an additional fifteen seconds accompanied by electric shock (unconditioned stimulus). A response (jumping onto the exposed shelf of the upper chamber) occurring during the initial fifteen-second warning tone is considered an avoidance response, while a response occurring during shock delivery is considered an escape response. Trials are presented on a fixed interval schedule of one minute. The session consists of thirty-six trials. Animals are run twice weekly with control sessions always preceding a drug run, and with at least one day intervening. Compounds are administered i.p. or p.o. at appropriate pre-treatment times to a minimum of five rats at each dose level over a range of doses.
The following experimental parameters are recorded by computer: (1) the number of avoidance responses, (2) the number of escape responses, and (3) the number of trials in which no response occurred.
Response counts are summed over all subjects at a given dose. […] This number is expressed as a percentage of the total trials. Control performance is arbitrarily assigned a value of 100% for avoidance responding and the dose calculated to produce a 50% block in avoidance responding (AB50) is obtained from a dose-effect regression line fitted by the method of least squares. Potential antipsychotic compounds suppress avoidance responding and increase escape responding.

Assay [2] relates to apomorphine-induced stereotyped behavior (in vivo dopamine receptor blocking activity). To be noted: i.p., mice; inactivity taken as low potential for extrapyramidal side effects.
Assay [3] deals with limbic D-2 dopamine receptor (Rattus norvegicus, UniProt P61169). The assay can be described thus: inhibition of limbic D-2 dopamine receptor binding (3H-spiroperidol). To be noted: read-out: Limbic D-2 Binding Inhibition, % inhibition at 1 μM.
Chain of limbic D-2 dopamine receptor (P61169 whole entry): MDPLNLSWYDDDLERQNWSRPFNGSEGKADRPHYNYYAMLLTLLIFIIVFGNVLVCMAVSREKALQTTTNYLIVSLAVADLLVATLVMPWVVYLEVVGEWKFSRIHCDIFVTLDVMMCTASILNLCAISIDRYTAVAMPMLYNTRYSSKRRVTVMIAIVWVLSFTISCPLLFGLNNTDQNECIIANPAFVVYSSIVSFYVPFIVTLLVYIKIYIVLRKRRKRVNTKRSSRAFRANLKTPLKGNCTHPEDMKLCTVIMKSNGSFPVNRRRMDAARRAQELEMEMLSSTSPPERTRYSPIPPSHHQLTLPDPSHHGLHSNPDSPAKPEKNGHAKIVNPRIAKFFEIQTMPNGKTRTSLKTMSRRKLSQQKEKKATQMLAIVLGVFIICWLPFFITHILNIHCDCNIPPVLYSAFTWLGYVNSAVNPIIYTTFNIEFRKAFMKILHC
Description: This in vitro assay measures the ability of the compounds tested to bind to the dopamine receptor sites.
The assay is carried out as follows:
Several rats are decapitated and the brains are rapidly removed. Limbic brain tissue (nucleus accumbens, septal area, olfactory tubercle) is dissected and homogenized on ice in 9 volumes of buffer (50 mM Tris-HCl, 120 mM NaCl, 5 mM KCl, 1 mM CaCl2, 1 mM MgCl2, 0.1% L-ascorbic acid, 10 μM pargyline HCl, pH 7.1) using a Polytron homogenizer at setting 5 for three 15-sec bursts. The homogenate is then diluted 4-fold with buffer and centrifuged at 30,000×g for 20 min, and the supernatant is discarded. The pellet is resuspended in the same volume of buffer and recentrifuged as before, again discarding the supernatant. This pellet is then resuspended in the same volume of buffer used in the homogenization, and the protein content of this preparation is assayed by the Lowry method. The homogenate is stored frozen at -70° C. until use.
At the end of the incubation, 3 ml of cold 50 mM Tris-HCl, pH 7.7, are added to each tube, and the contents are rapidly vacuum-filtered through Whatman GF/B glass-fiber filters. The filters are then rapidly washed 3 times with 3 ml of the same buffer, placed in scintillation vials, and shaken for 15 min with 10 ml of Hydrofluor (National Diagnostics) scintillation cocktail. The vials are then counted in a Packard 460CD scintillation counter.
Specific binding is defined as total binding less binding in the presence of 1 μM (+)butaclamol. Binding in the presence of various concentrations of test drug is expressed as a per cent of specific binding when no drug is present.

Counter-ions that a name gives are not always drawn.

One may read the inhibition as the share of the control response that was lost under treatment.

Turning to `O=C1CC2(CCCC2)CC(=O)N1CCCCN1CCN(c2ncccn2)CC1` [Buspirone, 8-[4-[4-(2-pyrimidinyl)-1-piperazinyl]butyl]-8-azaspiro[4.5]decane-7,9-dione, reference compound], the ED50 in assay [1] (Rattus norvegicus, ip, read-out: AB50 (50% block in avoidance responding)) was 9.44 mg/kg. Further, in assay [2], the “activity in apomorphine-induced stereotyped behavior assay” value is “inactive”.

Regarding `Cl.O=C1C2C3CCC(O3)C2S(=O)(=O)N1CCCCc1ccncc1` (stereo not drawn) [Example 1, Hexahydro-2-[4-(4-pyridinyl)butyl]-4,7-epoxy-1,2-benzisothiazol-3(2H)-one 1,1-dioxide, hydrochloride], the inhibition at 1 µM in assay [3] came to 3%. Moreover, in assay [1], the Active at came to 40 mg/kg.

For `O=C1C2C3CCC(O3)C2S(=O)(=O)N1CCCCC1CCN(c2ncccn2)CC1` (stereo not drawn) [Example 2, Hexahydro-2-[4-[1-(2-pyrimidinyl)-4-piperidinyl]butyl]-4,7-epoxy-1,2-benzisothiazol-3(2H)-one 1,1-dioxide, hydrochloride, monohydrate], the inhibition at 1 µM in assay [3] turned out to be 6%.

For `Cl.O=C1C2C3C=CC(C3)C2S(=O)(=O)N1CCCCc1ccncc1` (stereo not drawn) [Example 3, 3a,4,7,7a-Tetrahydro-2-[4-(4-pyridinyl)butyl]-4,7-methano-1,2-benzisothiazol-3(2H)-one 1,1-dioxide, hydrochloride], in assay [3], the inhibition at 1 µM turned out to be 1%. In assay [1], this compound registered an Active at of 40 mg/kg.

Regarding `O=C1C2C3CCC(O3)C2S(=O)(=O)N1CCCCC1CCN(c2cncc(Cl)n2)CC1` (stereo not drawn) [Example 4, Hexahydro-2-[4-[1-(6-chloro-2-pyrazinyl)-4-piperidinyl]butyl]-4,7-epoxy-1,2-benzisothiazol-3(2H)-one 1,1-dioxide, hydrochloride, hydrate], the inhibition at 1 µM in assay [3] was found to be 7%.

With `CC1=C(C)CC2C(C1)C(=O)N(CCCCc1ccncc1)S2(=O)=O.Cl` (stereo not drawn) [Example 5, 3a,4,7,7a-Tetrahydro-5,6-dimethyl-2-[4-(4-pyridinyl)butyl]-1,2-benzisothiazol-3(2H)-one 1,1-dioxide, hydrochloride], in assay [3], the inhibition at 1 µM stood at 56%. Further, the Active at in assay [1] is listed as 40 mg/kg.

Consider `O=C1C2C3CCC(O3)C2S(=O)(=O)N1CCCCC1CCN(c2cnccn2)CC1` (stereo not drawn) [Example 6, Hexahydro-2-[4-[1-(2-pyrazinyl)-4-piperidinyl]butyl]-4,7-epoxy-1,2-benzisothiazol-3(2H)-one 1,1-dioxide, hydrochloride, hemihydrate], for which the inhibition at 1 µM in assay [3] worked out at 6%.

On to `O=c1c2ccccc2[s+]([O-])n1CCCCc1ccncc1` (stereo not drawn) [Example 7, 2-[4-(4-Pyridinyl)butyl]-1,2-benzisothiazol-3(2H)-one 1-oxide, hydrochloride], for which the inhibition at 1 µM in assay [3] was determined as 14%.
